Measured values as given in patent US20110136897A1, “TOLL-LIKE RECEPTOR 9 AGONISTS FOR THE TREATMENT OF ANXIETY-RELATED DISORDERS AND INFLAMMATORY DISORDERS” (YISSUM RESEARCH DEVELOPMENT COMPANY OF THE HEBREW …, priority 2008, published 2011).

What was measured:
[1] = tested on: RAW264.7 cells; test: LPS-induced NO production with or without corticosterone after ODN1826 pre-incubation; type: cell-based, mouse; conditions: 24 hours before LPS 1 μg/ml with corticosterone
Protocol: Determination of nitric oxygen (NO) production: The nitrite concentration in the medium was measured as an indicator of NO production according to the Griess reaction. 1×10^5 RAW264.7 cells were grown in 0.5 ml medium in 48-wells plate until 80% confluence was obtained. […] (1% sulfanilamide, 0.1% naphthylethylenediamine dihydrochloride, 5% H3PO4). Absorbance was read at 540 nm after 10 minutes using SPECTRAFluor Plus spectrophotometer (TECAN, UK).
In order to study the functional effects of TLR9 activation on GR signaling, RAW264.7 cells were incubated with varying concentrations of ODN1826 (SEQ ID NO: 2) for 24 hours and the medium was replaced with one containing LPS (1 μg/ml) with or without […] corticosterone (CORT) for an additional 24 hours. As expected, CORT blocked lipopolysaccharide (LPS)-induced NO production.

[2] = tested on: RAW264.7 cells; test: RT-PCR of inflammatory genes in RAW264.7 cells (Table 2); type: cell-based, mouse
Protocol: Real-time PCR (RT-PCR): Brains were dissected and tissues stored frozen at −70° C. until use. Hippocampal RNA was extracted using the RNeasy Tissue Mini Kit (Qiagen, Germany). Total RNA was reverse-transcribed (200 ng) using Impromp-II reverse transcriptase (Promega, Madison, Wis.) as instructed. RT-PCR was performed using Power SYBR®Green PCR Master Mix (Applied Biosystems, UK) in a 7900 HT Sequence Detection System (Applied Biosystems, Foster City, Calif.). Quantification was assessed at the logarithmic phase of the PCR reaction. The PCR annealing temperature was 60° C. for all primer pairs. GAPDH was used as a house-keeping gene.
Shown are fold differences in RT-PCR products of RAW264.7 cells incubated with the noted doses of mEN101 or ODN1826. Note that ODN1826 affects IL1α, -1β, -6, -10, -12 and ICAM-1 gene expression at concentrations as low as 10 nM, whereas considerably higher doses of mEN101 are needed to attain similar effects. Nevertheless, mEN101 affects inflammatory gene expression even at 10 nM. 1 μg/ml LPS was used as positive control. (n=3, p<0.05 Mann-Whitney U-test compared to untreated controls, for all the data shown).

5′-TCCATGACGTTCCTGACGTT-3′ [ODN1826, reference compound]
effect on LPS-induced NO production / cell activation ([1]; higher doses (10-100 nM)): increased cell activation
effect on CORT inhibition of LPS-induced NO production ([1]; low doses (0.01-1 nM)): potentiated CORT anti-inflammatory effect
ICAM-1 RT-PCR product ([2]; 10 nM): −3.57 log2 from NT
IL1a RT-PCR product ([2]; 10 nM): 4.18 log2 from NT
IL1b RT-PCR product ([2]; 10 nM): 4.40 log2 from NT
IL6 RT-PCR product ([2]; 10 nM): 3.57 log2 from NT
IL10 RT-PCR product ([2]; 10 nM): 3.74 log2 from NT
IL12 RT-PCR product ([2]; 10 nM): 3.57 log2 from NT
ICAM-1 RT-PCR product ([2]; 100 nM): −3.14 log2 from NT
IL1a RT-PCR product ([2]; 100 nM): 5.33 log2 from NT
IL1b RT-PCR product ([2]; 100 nM): 5.63 log2 from NT
IL6 RT-PCR product ([2]; 100 nM): 3.71 log2 from NT
IL10 RT-PCR product ([2]; 100 nM): 4.28 log2 from NT
IL12 RT-PCR product ([2]; 100 nM): 4.28 log2 from NT
